Reference: article PMC4187121, “Flexible Enantioselectivity of Tryptophanase Attributable to Benzene Ring in Heterocyclic Moiety of D-Tryptophan” (Life : Open Access Journal, 2012)
Entries after “also recorded” stand apart in the source; their conditions may differ.

Key:
[1] = biological target: T1, tryptophanase (Escherichia coli, UniProt P0A853); assay: L-tryptophan degradation by tryptophanase, kinetic and inhibition analysis (indole formation, Ehrlich reagent); assay type: biochemical, E. coli; settings: for Ki: read-out: Inhibition const. Ki; for effect on L-tryptophan degradation: in the absence and presence of DAP
T1 construct: purchased Sigma-Aldrich Co. (St. Louis, MO, USA)
T1 sequence (P0A853 whole entry): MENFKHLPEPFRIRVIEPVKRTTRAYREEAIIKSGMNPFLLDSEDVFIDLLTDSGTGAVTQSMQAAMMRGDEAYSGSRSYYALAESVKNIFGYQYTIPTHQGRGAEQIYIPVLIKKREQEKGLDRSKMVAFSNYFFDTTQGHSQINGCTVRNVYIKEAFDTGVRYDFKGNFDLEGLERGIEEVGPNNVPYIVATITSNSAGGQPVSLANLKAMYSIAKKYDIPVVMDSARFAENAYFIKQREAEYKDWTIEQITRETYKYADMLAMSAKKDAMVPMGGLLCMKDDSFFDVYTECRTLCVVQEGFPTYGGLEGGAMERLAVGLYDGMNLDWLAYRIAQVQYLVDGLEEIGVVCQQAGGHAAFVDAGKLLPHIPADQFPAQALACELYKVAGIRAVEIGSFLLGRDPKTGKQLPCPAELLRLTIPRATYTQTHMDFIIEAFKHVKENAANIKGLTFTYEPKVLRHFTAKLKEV
Protocol: (§1) When tryptophanase degraded L-tryptophan, all reaction mixtures included 0.2 mM of pyridoxal 5′-phosphate and 0.23 μM of tryptophanase in 100 mM potassium phosphate buffer of pH 8.3. DAP concentrations were prepared to the required concentrations of 0, 0.6, 1.2, 1.9 or 3.1 M. L-tryptophan. The reaction mixture was prepared to a concentration of 98, 108, 128, 137, 147, 167, 196, 225, 245, 294, 343, 392, 490, 680 or 980μM for kinetic analyses. Reactions were performed at 37 °C for 30 min in a Dry Thermo Unit DTU-1B (Taitec, Tokyo, Japan). Although D-tryptophan in addition to L-tryptophan was also degraded into indole in the presence of DAP, an indole production amount from D-tryptophan was neglected at this reaction temperature and time because the catalytic efficiency for D-tryptophan was 0.3% of that for L-tryptophan. On the other hand, the reaction condition of D-tryptophan degradation differed in several ways from that of L-tryptophan degradation. Each concentration of pyridoxal 5′-phosphate and tryptophanase was 1.2 mM and 0.92μM, and additionally reaction temperature and time was 55 °C and 2 h, respectively. All the other reaction conditions were the same as in the L-tryptophan degradation.
(§2) The total volume of the reaction mixture was 2 mL per tube. The reaction was stopped by adding 2 mL of n-butanol, which was vigorously mixed and then immediately centrifuged at approximately 1,000 G for 10 min. After centrifugation, the reaction mixture was separated into two layers of butanol and aqueous solutions in which indole was equally distributed. The supernatant butanol layer was extracted to be mixed with an equal volume of Ehrlich reagent, then colored red at 60 °C for 30 min in Dry Thermo Unit. […] Tryptophanase activity was assayed in triplicate at the same substrate concentration and then averaged. Initial velocity was computed based on the averaged value.
(§3) Initial velocities were defined by indole that formed within 1 minute after 1 mg of tryptophanase was added. Then the reciprocal of (initial velocity/[E] (enzyme concentration)) (ordinate) versus the reciprocal of substrate concentration (abscissa) was drawn for each concentration of L- or D-tryptophan. These double-reciprocal plots were drawn based on the least squares method to calculate kinetic parameters. Kcatwas determined from the reciprocal of the intercepts of these double-reciprocal plots, and the Michaelis constant Km from substrate concentration at 1/v = 0 in the absence of inhibitor. In noncompetitive inhibition, two inhibition constants of Ki (=[E][I]/[EI], E: enzyme; I: inhibitor; EI: enzyme-inhibitor complex) and Ki' (=[ES][I]/[ESI], ES: enzyme-substrate complex; ESI: enzyme-substrate-inhibitor complex) were determined from the slopes and from the intercepts, respectively. In the mixed type inhibition, Ki and Ki' were determined from x and y coordinates of the fixed point in the second quadrant.

[2] = biological target: T1, tryptophanase; assay: D-tryptophan degradation by tryptophanase in the presence of 3.1 M DAP, kinetic and inhibition analysis; assay type: biochemical, E. coli; settings: for effect on D-tryptophan degradation: in the presence of 3.1 M DAP
Protocol: as §1, §2, §3

[3] = substrate L-Trp, DAP 0 M (Table 2)
[4] = substrate L-Trp, DAP 0.6 M (Table 2)
[5] = substrate L-Trp, DAP 1.2 M (Table 2)
[6] = inhibitor of L-tryptophan degradation, DAP 0 M
[7] = inhibitor of L-tryptophan degradation, DAP 0.6 M
[8] = inhibitor of L-tryptophan degradation, DAP 1.2 M
[9] = inhibitor of L-tryptophan degradation, DAP 1.9 M
[10] = inhibitor of D-tryptophan degradation, 3.1 M DAP

N.N.O=P(O)(O)O [DAP, diammoniumhydrogen phosphate]
Inhibition type ([1]; DAP as inhibitor of L-tryptophan degradation): noncompetitive inhibitor

O=C(O)C(=O)Cc1c[nH]c2ccccc12 [indole pyruvate]
Ki, fold stronger than for pyruvate ([1]; L-tryptophan degradation): 15 fold
Inhibition type [1, 3]: competitive
Ki [1, 3]: 0.2 mM
Inhibition const. Ki' [1, 4]: 0.3 mM
Inhibition type [1, 4]: mixed
Ki [1, 4]: 0.2 mM
Inhibition const. Ki' [1, 5]: 0.2 mM
Inhibition type [1, 5]: noncompetitive
Ki [1, 5]: 0.2 mM

N[C@@H](Cc1c[nH]c2ccccc12)C(=O)O [L-tryptophan]
reduced values of kcat compared to the values in the absence of DAP ([1]; L-tryptophan degradation in the presence of DAP): 18–45%

N[C@H](Cc1c[nH]c2ccccc12)C(=O)O [D-tryptophan]
catalytic efficiency, percent of that for L-tryptophan ([1]; in the presence of DAP, 37 °C, 30 min): 0.3%
Inhibition type [1, 6]: competitive inhibitor
Ki [1, 6]: 21 mM
Inhibition type [1, 7]: mixed
Ki [1, 7]: 25 mM
Inhibition type [1, 8]: mixed
Ki [1, 8]: 30 mM
Inhibition type [1, 9]: mixed
Ki [1, 9]: 38 mM
Inhibition type ([1]; inhibitor of L-tryptophan degradation, DAP 3.1 M): noncompetitive inhibition type
Ki/Ki' ([1]; with increasing DAP concentrations (0 to 3.1 M), L-tryptophan degradation): 0 to 1.0

N[C@H](Cc1ccccc1)C(=O)O [D-phenylalanine]
effect on D-tryptophan degradation [2]: little
effect on L-tryptophan degradation [1]: no effect

N[C@H](Cc1c[nH]cn1)C(=O)O [D-histidine]
effect on D-tryptophan degradation [2]: inhibited
Inhibition type [2, 10]: competitively inhibited
Ki [2, 10]: 0.4 mM
effect on L-tryptophan degradation [1]: no effect; also recorded: did not interact

CC(=O)C(=O)O [potassium pyruvate]
Inhibition type [1, 3]: competitively inhibited; also recorded: competitive
Ki [1, 3]: 3 mM

N[C@H](Cc1ccc(O)cc1)C(=O)O [D-tyrosine]
effect on D-tryptophan degradation [2]: no effect
effect on L-tryptophan degradation [1]: no effect
